The values that follow come from patent publication US6541505B1, “Substituted (aminoiminomethyl or aminomethyl) benzoheteroaryl compounds” (Aventis Pharmaceuticals Inc., priority 1998, dated 2003).

The structures appear in SMILES notation. Structures can show the parent of a compound that is named as a salt.

In the case of `CN(C)CCCOc1ccc(-c2ccc(C(=O)NCCc3ccc4[nH]cc(C(=N)N)c4c3)cc2)cn1` (as salt: salt) [Example 1aaaaab, N-[2-(3-Carbamimidoyl-1H-indol-5-yl)ethyl]-4-[6-(3-dimethylaminopropoxy)pyridin-3-yl]benzamide], the melting point is 84 to 86 °C.
Molecule `COCCOc1nccc(-c2ccc(C(=O)NCCc3ccc4[nH]cc(C(=N)N)c4c3)cc2)n1` (as salt: salt) [Example 1aaaal, N-[2-(3-Carbamimidoyl-1H-indol-5-yl)-ethyl]-4-[2-(2-methoxyethoxy)-pyrimidin-4-yl]benzamide] gave a melting point of 122 to 124 °C.
With `N=C(N)c1c[nH]c2ccc(CCNC(=O)c3ccc(-c4ccnc(OCCN5CCCC5)n4)cc3)cc12` (as salt: salt) [Example 1aaaaq, N-[2-(3-Carbamimidoyl-1H-indol-5-yl)ethyl]-4-[2-(2-pyrrolidin-1-yl-ethoxy)pyrimidin-4-yl]benzamide] the figure was 104 to 105 °C; with `CN1CCN(c2nccc(-c3ccc(C(=O)NCCc4ccc5[nH]cc(C(=N)N)c5c4)cc3)n2)CC1` (as salt: salt) [Example 1aaae, N-[2-(3-Carbamimidoyl-1H-indol-5-yl)ethyl]-4-[2-(4-methylpiperazin-1-yl)pyrimidin-4-yl]benzamide], 111 to 113 °C.
Consider `N=C(N)c1c[nH]c2ccc(CCNC(=O)c3ccc(-c4ccnc(CNCCCC(=O)O)n4)cc3)cc12` (as salt: salt) [Example 1aaaf, 4-[(4-{4-[2-(3-Carbamimidoyl-1H-indol-5-yl)ethylcarbamoyl]phenyl}pyrimidin-2-yl)methylamino]butyric acid], for which the melting point is 100 to 104 °C.
With `N=C(N)c1c[nH]c2ccc(CCNC(=O)c3ccc(-c4ccnc(N5CCCC5CO)n4)cc3)cc12` (stereo not shown) (as salt: salt) [Example 1aaaj, N-[2-(3-Carbamimidoyl-1H-indol-5-yl)-ethyl]-4-[2-(2-hydroxymethylpyrrolidin-1-yl)-pyrimidin-4-yl]benzamide] the figure was 117 to 120 °C; with `CN(CC(N)=O)c1nccc(-c2ccc(C(=O)NCCc3ccc4[nH]cc(C(=N)N)c4c3)cc2)n1` (as salt: salt) [Example 1aaak, N-[2-(3-Carbamimidoyl-1H-indol-5-yl)-ethyl]-4-[2-(carbamoylmethyl-N-methylamino)-pyrimidin-4-yl]benzamide], 96 to 98 °C.
With `CN(C)CCCCCCNc1nccc(-c2ccc(C(=O)NCCc3ccc4[nH]cc(C(=N)N)c4c3)cc2)n1` (as salt: salt) [Example 1aaar, N-[2-(3-Carbamimidoyl-1H-indol-5-yl)ethyl]-4-[2-(6-dimethylaminohexylamino)pyrimidin-4-yl]benzamide] the figure was 89 to 91 °C.
With `CN(C)CCCCNc1nccc(-c2ccc(C(=O)NCCc3ccc4[nH]cc(C(=N)N)c4c3)cc2)n1` (as salt: salt) [Example 1aaas, N-[2-(3-Carbamimidoyl-1H-indol-5-yl)ethyl]-4-[2-(4-dimethylaminobutylamino)pyrimidin-4-yl]benzamide] the figure was 156 to 159 °C.
For `N=C(N)c1c[nH]c2ccc(CCNC(=O)c3ccc(-c4ccnc(NC5CC6CCC5C6)n4)cc3)cc12` (stereo not shown) (as salt: salt) [Example 1aaat, 4-[2-(Bicyclo[2.2.1]hept-2-ylamino)pyrimidin-4-yl]-N-[2-(3-carbamimidoyl-1H-indol-5-yl)ethyl]benzamide], the melting point was in the range of 152 to 155 °C.
With `N=C(N)c1c[nH]c2ccc(CCNC(=O)c3ccc(-c4ccnc(N5CCCC5C(N)=O)n4)cc3)cc12` (stereo not shown) (as salt: salt) [Example 1aaau, 1-(4-{4-[2-(3-Carbamimidoyl-1H-indol-5-yl)ethylcarbamoyl]phenyl}pyrimidin-2-yl)pyrrolidine-2-carboxylic acid amide] the figure was 139 to 141 °C; with `CN(CCO)c1nccc(-c2ccc(C(=O)NCCc3ccc4[nH]cc(C(=N)N)c4c3)cc2)n1` (as salt: salt) [Example 1aaav, N-[2-(3-Carbamimidoyl-1H-indol-5-yl)ethyl]-4-{2-[(2-hydroxy-ethyl)-N-methylamino]pyrimidin-4-yl}benzamide], 97 to 100 °C; with `COc1ccc(-c2ccc(C(=O)NCCc3ccc4[nH]cc(C(=N)N)c4c3)cc2)cc1OC` (as salt: salt) [Example 1o, 3′,4′-Dimethoxybiphenyl-4-carboxylic acid (2-[3-carbamimidoylindol-5-yl]ethyl)amide], more than 250 °C.
With `N=C(N)c1c[nH]c2ccc(CCNC(=O)c3ccc(-c4cccnc4)cc3)cc12` [Example 1a, N-(2-[3-Carbamimidoyl-5-indolyl]ethyl)-4-pyrid-3-ylbenzamide] the figure was 55 to 58 °C; with `N=C(N)c1c[nH]c2ccc(CCNC(=O)c3ccc(-n4cncn4)nc3)cc12` [Example 1aa, N-(2-[3-Carbamimidoylindol-5-yl]ethyl)-6-(1,2,4)triazol-1-ylnicotinamide], 196 to 199 °C.
With `N=C(N)c1c[nH]c2ccc(CCNC(=O)c3ccc(-c4ccncc4)cc3)cc12` [Example 1aaaaaaa, N-(2-[3-Carbamimidoylindol-5-yl]ethyl)-4-pyrid-4-ylbenzamide] the figure was 113 to 116 °C; with `CN(C)CCNC(=O)Cn1cc(-c2ccc(C(=O)NCCc3ccc4[nH]cc(C(=N)N)c4c3)cc2)ccc1=O` [Example 1aaaaad, N-[2-(3-Carbamimidoyl-1H-indol-5-yl)-ethyl]-4-{1-[(2-dimethylaminoethylcarbamoyl)methyl]-6-oxo-1,6-dihydropyridin-3-yl}benzamide], 71 to 75 °C.
`CN(C)CCOc1ccc(-c2ccc(C(=O)NCCc3ccc4[nH]cc(C(=N)N)c4c3)cc2)cn1` [Example 1aaaaaz, N-(2-[3-Carbamimidoylindol-5-yl]ethyl)-4-(6-[2-dimethylaminoethoxy]pyridin-3-yl)benzamide] came in with a melting point of 57 to 59 °C.
With `CC(Oc1nccc(-c2ccc(C(=O)NCCc3ccc4[nH]cc(C(=N)N)c4c3)cc2)n1)C(N)=O` (stereo not shown) [Example 1aaaam, N-[2-(3-Carbamimidoyl-1H-indol-5-yl)ethyl]-4-[2-(1-carbamoylethoxy)pyrimidin-4-yl]benzamide] the figure was 159 to 161 °C; with `CN(C)CCCCCCOc1nccc(-c2ccc(C(=O)NCCc3ccc4[nH]cc(C(=N)N)c4c3)cc2)n1` [Example 1aaaan, N-[2-(3-Carbamimidoyl-1H-indol-5-yl)ethyl]-4-[2-(6-dimethylaminohexyloxy)pyrimidin-4-yl]benzamide], 82 to 84 °C.
In turn, `N=C(N)c1c[nH]c2ccc(CCNC(=O)c3ccc(-c4ccnc(OC5CCCNC5=O)n4)cc3)cc12` (stereo not shown) [Example 1aaaap, N-[2-(3-Carbamimidoyl-1H-indol-5-yl)ethyl]-4-[2-(2-oxopiperidin-3-yloxy)pyrimidin-4-yl]benzamide] yielded a melting point of 145 to 147 °C.
With `CN(C)CCOc1nccc(-c2ccc(C(=O)NCCc3ccc4[nH]cc(C(=N)N)c4c3)cc2)n1` [Example 1aaaar, N-[2-(3-Carbamimidoyl-1H-indol-5-yl)ethyl]-4-[2-(2-dimethylaminoethoxy)pyrimidin-4-yl]benzamide] the figure was 106 to 107 °C.
With `CN(C)CCOc1cccc(-c2ccc(C(=O)NCCc3ccc4[nH]cc(C(=N)N)c4c3)cc2)c1` [Example 1aaaas, 3′-(2-Dimethylaminoethoxy)biphenyl-4-carboxylic acid [2-(3-carbamimidoyl-1H-indol-5-yl)ethyl]amide] the figure was 99 to 101 °C.
With `CN(C)CCOc1ccccc1-c1ccc(C(=O)NCCc2ccc3[nH]cc(C(=N)N)c3c2)cc1` [Example 1aaaau, 2′-(2-Dimethylaminoethoxy)biphenyl-4-carboxylic acid [2-(3-carbamimidoyl-1H-indol-5-yl)ethyl]amide] the figure was 73 to 76 °C.
For the molecule `CN(C)CCCOc1ccccc1-c1ccc(C(=O)NCCc2ccc3[nH]cc(C(=N)N)c3c2)cc1` [Example 1aaaav, 2′-(3-Dimethylaminopropoxy)biphenyl-4-carboxylic acid [2-(3-carbamimidoyl-1H-indol-5-yl)ethyl]amide], the melting point is 76 to 78 °C.
With `CN(C)CCCOc1cccc(-c2ccc(C(=O)NCCc3ccc4[nH]cc(C(=N)N)c4c3)cc2)c1` [Example 1aaaaw, 3′-(3-Dimethylaminopropoxy)biphenyl-4-carboxylic acid [2-(3-carbamimidoyl-1H-indol-5-yl)ethyl]amide] the figure was 84 to 86 °C; with `N=C(N)c1c[nH]c2ccc(CCNC(=O)c3ccc(-c4ccnc(OCC(F)(F)F)n4)cc3)cc12` [Example 1aaag, N-[2-(3-Carbamimidoyl-1H-indol-5-yl)ethyl]-4-[2-(2,2,2-trifluoroethoxy)pyrimidin-4-yl]benzamide], 194 to 195 °C.
With `N=C(N)c1c[nH]c2ccc(CCNC(=O)c3ccc(-c4ccnc(N5CCCC5)n4)cc3)cc12` [Example 1aaah, N-[2-(3-Carbamimidoyl-1H-indol-5-yl)-ethyl]-4-(2-pyrrolidin-1-ylpyrimidin-4-yl)benzamide] the figure was 134 to 136 °C.
With `N=C(N)c1c[nH]c2ccc(CCNC(=O)c3ccc(-c4ccnc(NCCCCCCN5CCCC5)n4)cc3)cc12` [Example 1aaal, N-[2-(3-Carbamimidoyl-1H-indol-5-yl)ethyl]-4-[2-(6-pyrrolidin-1-yl-hexylamino)pyrimidin-4-yl]benzamide] the figure was 159 to 161 °C; with `N=C(N)c1c[nH]c2ccc(CCNC(=O)c3ccc(-c4ccnc(NCCCCCCN5CCCCC5)n4)cc3)cc12` [Example 1aaam, N-[2-(3-Carbamimidoyl-1H-indol-5-yl)ethyl]-4-[2-(6-piperidin-1-ylhexylamino)pyrimidin-4-yl]benzamide], 110 to 113 °C; with `N=C(N)c1c[nH]c2ccc(CCNC(=O)c3ccc(-c4ccnc(NCCCCN5CCCCC5)n4)cc3)cc12` [Example 1aaan, N-[2-(3-Carbamimidoyl-1H-indol-5-yl)ethyl]-4-[2-(4-piperidin-1-ylbutylamino)pyrimidin-4-yl]benzamide], 94 to 96 °C.
